In patent US5399697A, “N,N',N'-trisubstituted-5-bisaminomethylene-1,3-dioxane-4,6-dione inhibitors of acyl-CoA:cholesterol-acyl transferase” (American Home Products Corporation, priority 1993, dated 1995):
Read-outs that look alike come from different tables or passages of the source.

Tests used:
[1] = test system: acyl-coenzyme A: cholesterol acyltransferase; experiment: Inhibition of ACAT / intracellular cholesterol esterification in vitro (procedure of Ross et al.); assay type: cell-based
[2] = test system: plasma cholesterol; experiment: Plasma cholesterol in cholesterol-cholic acid fed rats; assay type: in vivo; conditions: Rattus norvegicus, oral gavage; for change in vivo at 100 mg/kg / change in vivo at 60 mg/kg / change in vivo at 40 mg/kg / change in vivo at 20 mg/kg: 96 h, four days, read-out: % Decrease in Plasma Cholesterol
Protocol: In addition, representative compounds were studied in vivo in cholesterol-cholic acid fed rats to determine the percent decrease of cholesterol in their plasma. This study involves rats which are, prior to testing, trained for one week to eat over a four hour time period each day. Upon initiation of the experiment, the rats diet is supplemented with 1.0 percent cholesterol and 0.25 percent cholic acid. The rats are dosed with the test compound by oral gavage just prior to adjust following the four hour feeding period. This is repeated for four days. On the fifth day, the rats are sacrificed and the total plasma cholesterol content is determined. The percent decrease in elevated plasma cholesterol levels is calculated in comparison with […].

[3] = test system: cholesterol absorption; experiment: 14C-cholesterol absorption in normal rats (oral gavage); assay type: in vivo; conditions: Rattus norvegicus, normal rats, read-out: % Inhibition of Absorption
Protocol: Representative compounds were further tested in vivo to establish the percent inhibition of cholesterol absorption. In this study, normal rats were dosed (oral gavage) with ^14 C-cholesterol plus the test compound. Blood samples taken at six hours and/or intermittently up to twenty-four hours were analyzed and the percent inhibition of cholesterol absorption was calculated.

SMILES: CCCCCCCN(Cc1ccc(OCCC(C)C)cc1)C(Nc1ccc(OC)cc1OC)=C1C(=O)OC(C)(C)OC1=O [Compound 6, 5-[[(2,4-Dimethoxyphenyl)amino][heptyl[[4-[(3-methylbutyl)oxy]phenyl]methyl]amino]-methylene]-2,2-dimethyl-1,3-dioxane-4,6-dione]
- % Inhibition ([1]; 25 μM): 99%
- IC50 ([1]; read-out: IC50): 1.5 µM
- change in vivo at 100 mg/kg [2]: -42%

SMILES: COc1ccc(NC(=C2C(=O)OC(C)(C)OC2=O)N(Cc2ccc(CC(C)C)cc2)C2CCN(CCc3ccccc3)CC2)c(OC)c1 [Compound 8, 5-[[(2,4-Dimethoxyphenyl)amino][[[4-(2-methylpropyl)phenyl]methyl][1-(phenylethyl)-4-piperidinyl]amino]methylene]-2,2-dimethyl-1,3-dioxane-4,6-dione]
- change in vivo at 10 mg/kg [3]: -16%
- % Inhibition ([1]; 25 μM): 85%
- IC50 ([1]; read-out: IC50): 5.6 µM

SMILES: CCCCCCCN(Cc1ccc(CCCCC)cc1)C(Nc1ccc(OC)cc1OC)=C1C(=O)OC(C)(C)OC1=O [Compound 14, 5-[[(2,4-Dimethoxyphenyl)amino][heptyl[(4-pentylphenyl)methyl]amino]methylene]-2,2-dimethyl-1,3-dioxane-4,6-dione]
- % Inhibition ([1]; 25 μM): 99%
- IC50 ([1]; read-out: IC50): 0.84 µM
- change in vivo at 100 mg/kg [2]: -85%
- ED50 ([2]; fifty percent reduction of plasma cholesterol): 16 mg/kg

SMILES: CCCCCCCN(Cc1ccc(OCCC(C)C)cc1)C(Nc1ccc(N(C)C)cc1)=C1C(=O)OC(C)(C)OC1=O [Compound 22, 5-[[[4-(Dimethylamino)phenyl]amino][heptyl[[[4-(3-methylbutyl)oxy]phenyl]methyl]amino]-methylene]-2,2-dimethyl-1,3-dioxane4,6-dione]
- % Inhibition ([1]; 25 μM): 93%
- IC50 ([1]; read-out: IC50): 0.37 µM
- change in vivo at 60 mg/kg [2]: -46%

SMILES: CCCCOc1ccc(NC(=C2C(=O)OC(C)(C)OC2=O)N(Cc2ccc(C(C)(C)C)cc2)C(C)CCCC(C)C)cc1 (stereo not shown) [Compound 28, 5-[[(4-Butoxyphenyl)amino][[[4-(1,1-dimethylethyl)phenyl]methyl](1,5-dimethylhexyl)amino]-methylene]-2,2-dimethyl-1,3-dioxane-4,6-dione]
- % Inhibition ([1]; 25 μM): 98%
- IC50 ([1]; read-out: IC50): 0.69 µM
- change in vivo at 40 mg/kg [2]: -15%

SMILES: COc1ccc(NC(=C2C(=O)OC(C)(C)OC2=O)N(Cc2ccc(C(C)(C)C)cc2)C(C)CCCC(C)C)c(OC)c1 (stereo not shown) [Compound 29, 5-[[(2,4-Dimethoxyphenyl)amino][[[4-(1,1-dimethylethyl)phenyl]methyl](1,5-dimethylhexyl)-amino]methylene]-2,2-dimethyl-1,3-dioxane-4,6-dione]
- % Inhibition ([1]; 25 μM): 99%
- IC50 ([1]; read-out: IC50): 0.23 µM
- change in vivo at 100 mg/kg [2]: -84%

SMILES: CCCCCCCN(Cc1ccc(CC(C)C)cc1)C(Nc1ccc(OC)cc1OC)=C1C(=O)OC(C)(C)OC1=O [Compound 31, 5-[[(2,4,-Dimethoxyphenyl)amino][heptyl[[4-(2-methylpropyl)phenyl]methyl]amino]methylene]-2,2-dimethyl-1,3-dioxane-4,6-dione]
- % Inhibition ([1]; 25 μM): 97%
- IC50 ([1]; read-out: IC50): 0.91 µM
- change in vivo at 60 mg/kg [2]: -71%

SMILES: CCCCCC(C)N(Cc1ccc(CC(C)C)cc1)C(Nc1cccc(OCc2ccccc2)c1)=C1C(=O)OC(C)(C)OC1=O (stereo not shown) [Compound 34]
- % Inhibition ([1]; 25 μM): 98%
- IC50 ([1]; read-out: IC50): 1.1 µM
- change in vivo at 20 mg/kg [2]: -32%

SMILES: CCCCCC(C)N(Cc1ccc(OCCC(C)C)cc1)C(Nc1ccc(OC)cc1OC)=C1C(=O)OC(C)(C)OC1=O (stereo not shown) [Compound 35]
- % Inhibition ([1]; 25 μM): 99%
- IC50 ([1]; read-out: IC50): 0.54 µM
- change in vivo at 40 mg/kg [2]: -55%

SMILES: CCCCCCC(CCCCCC)N(Cc1ccc(CC(C)C)cc1)C(Nc1ccc(N(C)C)cc1)=C1C(=O)OC(C)(C)OC1=O [Compound 36]
- % Inhibition ([1]; 26 μM): 99%
- IC50 ([1]; read-out: IC50): 0.044 µM
- change in vivo at 20 mg/kg [2]: -62%

SMILES: CCCCCC(C)N(Cc1ccc(OCCC(C)C)cc1)C(Nc1ccc(N(C)C)cc1)=C1C(=O)OC(C)(C)OC1=O (stereo not shown) [Compound 38, 5-[[[4-(Dimethylamino)phenyl]amino][[[4-(3-methylbutoxy)phenyl]methyl](1-methylhexylhexyl)amino]methylene]-2,2-dimethyl-1,3-dioxane-4,6-dione]
- % Inhibition ([1]; 25 μM): 99%
- IC50 ([1]; read-out: IC50): 0.21 µM
- change in vivo at 40 mg/kg [2]: -58%

SMILES: COc1ccc(NC(=C2C(=O)OC(C)(C)OC2=O)N(Cc2ccc(CC(C)C)cc2)C(C)CCCC(C)C)c(OC)c1 (stereo not shown) [Compound 39, 5-[[(2,4-Dimethoxyphenyl)amino][(1,5-dimethylhexyl)[[4-(2-methylpropyl)phenyl]methyl]amino]methylene]-2,2-dimethyl-1,3-dioxane-4,6-dione]
- % Inhibition ([1]; 25 μM): 99%
- IC50 ([1]; read-out: IC50): 0.37 µM
- change in vivo at 40 mg/kg [2]: -65%

SMILES: CCCCc1ccc(CN(C(Nc2ccc(N(C)C)cc2)=C2C(=O)OC(C)(C)OC2=O)C(C)CCCC(C)(C)O)cc1 (stereo not shown) [Compound 45, 5-[[[(4-Butylphenyl)methyl](5-hydroxy-1,5-dimethylhexyl)amino][[4-(dimethylamino)phenyl]-amino]-methylene]-2,2-dimethyl-1,3-dioxane-4,6-dione]
- % Inhibition ([1]; 25 μM): 90%
- IC50 ([1]; read-out: IC50): 5.2 µM
- change in vivo at 20 mg/kg [2]: -29%

SMILES: COc1ccc(NC(=C2C(=O)OC(C)(C)OC2=O)N(Cc2ccc(CC(C)C)cc2)C(C)CCCC(C)(C)O)c(OC)c1 (stereo not shown) [Compound 52, 5-[[(2,4-Dimethoxyphenyl)amino][(5-hydroxy-1,5-dimethylhexyl)[[4-(2-methylpropyl)phenyl]-methyl]amino]methylene]-2,2-dimethyl-1,3-dioxane-2,4-dione]
- change in vivo at 10 mg/kg [3]: -29%
- % Inhibition ([1]; 25 μM): 89%
- IC50 ([1]; read-out: IC50): 5.6 µM

SMILES: CC(C)Cc1ccc(CN(C(Nc2ccc(N(C)C)cc2)=C2C(=O)OC(C)(C)OC2=O)C(C)CCCC(C)(C)O)cc1 (stereo not shown) [Compound 53]
- change in vivo at 10 mg/kg [3]: -50%
- % Inhibition ([1]; 25 μM): 81%
- IC50 ([1]; read-out: IC50): 5.2 µM

SMILES: CCCCCc1ccc(CN(C(Nc2ccc(N(C)C)cc2C)=C2C(=O)OC(C)(C)OC2=O)C(C)CCCCC)cc1 (stereo not shown) [Compound 54, 5-[[[4-(Dimethylamino)-2-methylphenyl]amino][(1-methylhexyl)[(4-pentylphenyl)methyl]-amino]methylene]-2,2-dimethyl-1,3-dioxane-4,6-dione]
- % Inhibition ([1]; 25 μM): 98%
- IC50 ([1]; read-out: IC50): 0.68 µM
- change in vivo at 20 mg/kg [2]: -77%

SMILES: CCCCCCCN(Cc1ccc(CCC(C)C)cc1)C(Nc1ccc(OC)cc1OC)=C1C(=O)OC(C)(C)OC1=O [Compound 55, 5-[[(2,4-Dimethoxyphenyl)amino][heptyl[[4-(3-methylbutyl)phenyl]methyl]amino]methylene]2,2-dimethyl-1,3-dioxane-4,6-dione]
- % Inhibition ([1]; 25 μM): 97%
- IC50 ([1]; read-out: IC50): 3 µM
- change in vivo at 20 mg/kg [2]: -40%

SMILES: CCCCCCCN(Cc1ccc(C(C)(C)C)cc1)C(Nc1c(OC)cc(OC)cc1OC)=C1C(=O)OC(C)(C)OC1=O [Compound 59, 5-[[[[4-(1,1-Dimethylethyl)phenyl]methyl]heptylamino][(2,4,6-trimethoxyphenyl)amino]-methylene]-2,2-dimethyl-1,3-dioxane-4,6-dione]
- change in vivo at 200 mg/kg ([3]; 200 mg/kg): -21%
- % Inhibition ([1]; 25 μM): 94%
- IC50 ([1]; read-out: IC50): 0.7 µM

SMILES: COc1ccc(NC(=C2C(=O)OC(C)(C)OC2=O)N(Cc2ccc(CC(C)C)cc2)[C@@H](CO[Si](C)(C)C(C)(C)C)CC(C)C)c(OC)c1 [Compound 71]
- IC50 [1]: 0.53 µM
- % Inhibition ([1]; 25 μM): 97%

SMILES: COc1ccc(NC(=C2C(=O)OC(C)(C)OC2=O)N(Cc2ccc(CCC(C)C)cc2)C(CC(C)C)CC(C)C)c(OC)c1 [Compound 72, 5-[[(2,4-Dimethoxyphenyl)amino][[[4-(3-methylbutyl)phenyl]methyl][-3-methyl-1-(2-methylpropyl)butyl]amino]methylene]-2,2-dimethyl-1,3-dioxane-4,6-dione]
- % Inhibition ([1]; 25 μM): 98%
- IC50 ([1]; read-out: IC50): 1.3 µM

SMILES: CC(C)CCc1ccc(CN(C(Nc2ccc(N(C)C)cc2)=C2C(=O)OC(C)(C)OC2=O)C(CC(C)C)CC(C)C)cc1 [Compound 73, 5-[[[4-(Dimethylamino)phenyl]amino][[[4-(3-methylbutyl)phenyl]methyl][3-methyl-1-(2-methylpropyl)butyl]amino]methylene]-2,2-dimethyl-1,3-dioxane-4,6-dione]
- % Inhibition ([1]; 25 μM): 97%
- IC50 ([1]; read-out: IC50): 1.3 µM

SMILES: COc1ccc(NC(=C2C(=O)OC(C)(C)OC2=O)N(Cc2ccc(CC(C)C)cc2)[C@@H](CO)CC(C)C)c(OC)c1 [Compound 74, (R)-5-[[(2,4-Dimethoxyphenyl)amino][[1-(hydroxymethyl)-3-methylbutyl][[4-(2-methylpropyl)-phenyl]methyl]amino]methylene]-2,2-dimethyl-1,3-dioxane-4,6,-dione]
- % Inhibition ([1]; concentration not given): 97%
- IC50 ([1]; read-out: IC50): 0.29 µM

SMILES: CC1(C)OC(=O)C(=C(Nc2cc(C(C)(C)C)c(O)c(C(C)(C)C)c2)Nc2cnc3ccccc3c2)C(=O)O1 [Compound 81, 5-[(3,5-Di-tert-butyl-4-hydroxy-phenylamino)-(quinolin-3-ylamino)-methylene]-2,2-dimethyl-[1,3]dioxane-4,6-dione]
- change in vivo at 3 mg/kg ([3]; 3 mg/kg): -90%
- % Inhibition ([1]; 50 μM): 90%

SMILES: CC1(C)OC(=O)C(=C(Nc2cccnc2)Nc2cc(C(C)(C)C)c(O)c(C(C)(C)C)c2)C(=O)O1 [Compound 82]
- % Inhibition ([1]; 50 μM): 94%

SMILES: CN(C(Nc1cc(C(C)(C)C)c(O)c(C(C)(C)C)c1)=C1C(=O)OC(C)(C)OC1=O)c1ccccn1 [Compound 83]
- % Inhibition ([1]; 50 μM): 86%
